In paper PMC3446762 (Viruses, 2012):

Columns and labels:
host cells = conditions: cited from earlier work
EBOV = conditions: 20 µM; cited from earlier work
MARV Ci67 isolate = type: cell-based, Marburg (MARV)
EBOV Zaire-95 isolate = type: cell-based, Ebola (EBOV)
HeLa cells [1] = conditions: human
HeLa cells [2] = conditions: human; remark: listed apart in the source

Compound	toxicity to host cells (host cells)	EBOV inhibition (EBOV) [%]	cellular protection during MARV infection (MARV Ci67 isolate) [%]	cellular protection during EBOV infection (EBOV Zaire-95 isolate) [%]	cellular toxicity (reduction in cell number), MARV assay (HeLa cells [1])	cellular toxicity (reduction in cell number), EBOV assay (HeLa cells [2])
Cc1cc(NCCN2CCOCC2)c2c(ccc3c2ccc2nc(C)cc(NCCN4CCOCC4)c23)n1 [Compound 1]	non-toxic to host cells	53	–	–	–	–
CCN(CC)CCCNc1cc(C)nc2ccc3c(ccc4nc(C)cc(NCCCN(CC)CC)c43)c12 [Compound 2]	toxic to host cells	13	–	–	–	–
CCN(CC)CCCNc1ccnc2ccc3c(ccc4nccc(NCCCN(CC)CC)c43)c12 [Compound 4]	–	–	100	100	80–90%	80–90%
